This is an account of results in publication PMC8012336, “An automated and high-throughput-screening compatible pluripotent stem cell-based test platform for developmental and reproductive toxicity assessment of small molecule compounds” (Cell Biology and Toxicology, 2020).

Converted amounts (≈) assume the structure as drawn. Read-outs that look alike come from different tables or passages of the source.

What all share (assay type): cell-based, mouse
Data set [1] is described as follows: Manual CellTiter-Glo luminescent cell viability assay (7 d or 5 d). The settings on record: mouse, in brackets the two individual experiments. The procedure: (§1) 96-well cell culture plates were coated with gelatin (0.1%) before plating mESC-D3. All peripheral wells of the assay plate were filled with 200 μl growth media. In order to assess compound toxicity on mESC-D3 and NIH/3T3 cells, cell suspensions of NIH/3T3, and mESC-D3 were prepared in growth media (1 × 10^4 cells/ml) and were transferred to all remaining wells (50 μl/well). A 7-point dilution series in growth media was prepared for each test compound and was transferred to the assay plate 2 h after cell seeding (150 μl/well). Afterward, the cells were incubated in a humidified atmosphere at 37 °C and 5% CO2. Three and 5 days after seeding the cell supernatant was replaced by freshly prepared compound solution (200 μl/well). […] The assay plate was placed on a shaker for 1 min and after another 10 min incubation at room temperature in the dark the luminescence signal was detected on a plate reader.
(§2) Toxicity data from the MTT and CellTiter-Glo Assay was normalized against the vehicle control (100% viability) and plotted against the logarithmic compound concentration.

Data set [2] concerns mESC-D3. The description is as above. Conditions: in brackets the two individual experiments. The procedure: as §1, §2
In data set [3] the test system is NIH/3T3. The data set is described as above. The settings on record: in brackets the two individual experiments. The protocol: as §1, §2

On to `O=C1NS(=O)(=O)c2ccccc21` [Saccharin, saccharin], for which the IC50 at 5 d in data set [1] (NIH/3T3 cells, read-out: Cytotoxicity assay CTG, 5 d IC50 NIH/3T3) is over 1000 µg/mL; in data set [1] (mESC-D3 cells, read-out: Cytotoxicity assay CTG, 5 d IC50 mESC-D3) it was 464 µg/mL (≈ 2.53 mM). Also, the IC50 at 7 d is over 1000 µg/mL in data set [1] (NIH/3T3 cells, read-out: Cytotoxicity assay CTG, 7 d IC50 NIH/ 3T3) and over 1000 µg/mL in data set [1] (mESC-D3 cells, read-out: Cytotoxicity assay CTG, 7 d IC50 mESC-D3).

On to `NC(=O)NO` [Hydroxyurea, hydroxyurea], for which the “Cytotoxicity assay CTG, 5 d IC50 mESC-D3” value in data set [2] (5 d) was 3.19 (4.12; 2.26) µg/ml. The “Cytotoxicity assay CTG, 7 d IC50 mESC-D3” value in data set [2] (7 d) is on record as 2.37 (2.28; 2.46) µg/ml. For the same compound, the “Cytotoxicity assay CTG, 5 d IC50 NIH/3T3” value in data set [3] (5 d) was 3.12 (> 10; 3.12) µg/ml. Besides, the “Cytotoxicity assay CTG, 7 d IC50 NIH/ 3T3” value in data set [3] (7 d) was 4.83 (> 10; 4.83) µg/ml.
